Experimental data published in patent US12180187B2, “1-phenyl-5-azinylpyrazolyl-3-oxyalkyl acids and their use for controlling unwanted plant growth” (BAYER AKTIENGESELLSCHAFT, priority 2019, dated 2024).

Key:
STEME = assay: Pre-emergence action against STEME, 1280 g/ha; format: in vivo, Stellaria media; settings: scored visually after about 3 weeks vs untreated controls (100% = plants have died)
Procedure, shortened: (§1)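 Sandy loam pots, seeds covered with soil; aqueous WP/EC spray on covering soil, 0.5% additive, 600 L/ha. Greenhouse growth, good conditions. Readout: visual % activity at ~3 weeks (0% = like control, 100% = dead).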

VERPE [1] = assay: Pre-emergence action at 320 g/ha against VERPE; format: in vivo, Veronica persica; settings: visual scoring after about 3 weeks vs untreated controls
Procedure, shortened: (§2)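 Effect rated visually (% vs untreated control) about 3 weeks after pre-emergence spraying of WP/EC formulation onto soil; spray carried 0.5% additive at 600 l/ha water.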

VIOTR = assay: Pre-emergence action at 320 g/ha against VIOTR; format: in vivo, Viola tricolor; settings: dosage 320 g/ha
Procedure, shortened: as §2

AVEFA = assay: Pre-emergence action at 320 g/ha against AVEFA; format: in vivo; settings: visual scoring after about 3 weeks vs untreated controls
Procedure, shortened: as §2

KCHSC [2] = assay: Pre-emergence action against KCHSC, 1280 g/ha; format: in vivo, Bassia scoparia; settings: scored visually after about 3 weeks vs untreated controls (100% = plants have died)
Procedure, shortened: as §1

VERPE [3] = assay: Pre-emergence action against VERPE, 1280 g/ha; format: in vivo, Veronica persica; settings: scored visually after about 3 weeks vs untreated controls (100% = plants have died)
Procedure, shortened: as §1

SETVI [4] = assay: Post-emergence action against SETVI, 1.28 kg/ha; format: in vivo, Setaria viridis; settings: dosage 1280 g/ha, visual rating about 3 weeks after treatment vs untreated controls
Procedure, shortened: (§3)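 Foliar application at the one-leaf stage: compound as WP or EC in water with 0.5% additive, sprayed at 600 L/ha. Plants are kept about 3 weeks in the greenhouse, then % herbicidal action is estimated visually (100% = death).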

AMARE [5] = assay: Post-emergence action against AMARE, 1.28 kg/ha; format: in vivo, Amaranthus retroflexus; settings: dosage 1280 g/ha, visual rating about 3 weeks after treatment vs untreated controls (100% = plants died)
Procedure, shortened: as §3

LOLRI [6] = assay: Pre-emergence action at 320 g/ha against LOLRI; format: in vivo, Lolium rigidum; settings: visual scoring after about 3 weeks vs untreated controls
Procedure, shortened: as §2

SETVI [7] = assay: Pre-emergence action against SETVI, 1280 g/ha; format: in vivo, Setaria viridis; settings: visual scoring after about 3 weeks vs untreated controls, 100% = plants have died, 0% = like control plants
Procedure, shortened: as §1

AMARE [8] = assay: Pre-emergence action against AMARE, 1280 g/ha; format: in vivo, Amaranthus retroflexus; settings: scored visually after about 3 weeks vs untreated controls (100% = plants have died)
Procedure, shortened: as §1

ALOMY [9] = assay: Pre-emergence action at 320 g/ha against ALOMY; format: in vivo, Alopecurus myosuroides; settings: scored visually after about 3 weeks vs untreated controls (100% = plants have died)
Procedure, shortened: as §2

ECHCG [10] = assay: Post-emergence action against ECHCG, 1.28 kg/ha; format: in vivo, Echinochloa crus-galli; settings: dosage 1280 g/ha, visual rating about 3 weeks after treatment vs untreated controls
Procedure, shortened: as §3

MATIN [11] = assay: Pre-emergence action at 320 g/ha against MATIN; format: in vivo, Tripleurospermum inodorum (Matricaria inodora); settings: visual scoring after about 3 weeks vs untreated controls
Procedure, shortened: as §2

ALOMY [12] = assay: Post-emergence action against ALOMY, 1.28 kg/ha; format: in vivo, Alopecurus myosuroides; settings: dosage 1280 g/ha, visual rating about 3 weeks after treatment vs untreated controls
Procedure, shortened: as §3

VERPE [13] = assay: Post-emergence action against VERPE, 1.28 kg/ha; format: in vivo, Veronica persica; settings: dosage 1280 g/ha, visual rating about 3 weeks after treatment vs untreated controls (100% = plants died)
Procedure, shortened: as §3

DIGSA [14] = assay: Post-emergence action against DIGSA, 1.28 kg/ha; format: in vivo, Digitaria sanguinalis; settings: dosage 1280 g/ha, visual rating about 3 weeks after treatment vs untreated controls
Procedure, shortened: as §3

MATIN [15] = assay: Post-emergence action against MATIN, 1.28 kg/ha; format: in vivo, Tripleurospermum inodorum (Matricaria inodora); settings: dosage 1280 g/ha, visual rating about 3 weeks after treatment vs untreated controls (100% = plants died)
Procedure, shortened: as §3

DIGSA [16] = assay: Pre-emergence action against DIGSA, 1280 g/ha; format: in vivo, Digitaria sanguinalis; settings: visual scoring after about 3 weeks vs untreated controls, 100% = plants have died, 0% = like control plants
Procedure, shortened: as §1

ALOMY [17] = assay: Pre-emergence action against ALOMY, 1280 g/ha; format: in vivo, Alopecurus myosuroides; settings: visual scoring after about 3 weeks vs untreated controls, 100% = plants have died, 0% = like control plants
Procedure, shortened: as §1

ECHGC = assay: Pre-emergence action at 320 g/ha against ECHGC; format: in vivo, Echinochloa crus-galli; settings: visual scoring after about 3 weeks vs untreated controls
Excerpt: b) Seeds of monocotyledonous and dicotyledonous weed plants and crop plants are placed in plastic or organic planting pots and covered with soil. The compounds of the invention, formulated in the form of wettable powders (WP) or as emulsion concentrates (EC), are then applied onto the surface of the covering soil as aqueous suspension or emulsion with addition of 0.5% additive at a water application rate of 600 l/ha (converted). After the treatment, the pots are placed in a greenhouse and kept under good growth conditions for the trial plants. After about 3 weeks, the effect of the preparations is scored visually in comparison with untreated controls as percentages. For example, 100% activity=the plants have died, 0% activity=like control plants. Tables 13 to 26 below show the effects of selected compounds of the general formula (I) on various harmful plants and at an application rate corresponding to 320 g/ha, which were obtained by the experimental procedure mentioned above.

ECHCG [18] = assay: Pre-emergence action against ECHCG, 1280 g/ha; format: in vivo, Echinochloa crus-galli; settings: visual scoring after about 3 weeks vs untreated controls, 100% = plants have died, 0% = like control plants
Procedure, shortened: as §1

LOLRI [19] = assay: Pre-emergence action against LOLRI, 1280 g/ha; format: in vivo, Lolium rigidum; settings: visual scoring after about 3 weeks vs untreated controls, 100% = plants have died, 0% = like control plants
Procedure, shortened: as §1

LOLRI [20] = assay: Post-emergence action against LOLRI, 1.28 kg/ha; format: in vivo, Lolium rigidum; settings: dosage 1280 g/ha, visual rating about 3 weeks after treatment vs untreated controls
Procedure, shortened: as §3

ABUTH = assay: Post-emergence action against ABUTH, 1.28 kg/ha; format: in vivo, Abutilon theophrasti; settings: dosage 1280 g/ha, visual rating about 3 weeks after treatment vs untreated controls (100% = plants died)
Procedure, shortened: as §3

POLCO = assay: Pre-emergence action at 320 g/ha against POLCO; format: in vivo, Fallopia convolvulus (Polygonum convolvulus); settings: visual scoring after about 3 weeks vs untreated controls
Procedure, shortened: as §2

AMARE [21] = assay: Pre-emergence action at 320 g/ha against AMARE; format: in vivo, Amaranthus retroflexus; settings: visual scoring after about 3 weeks vs untreated controls
Procedure, shortened: as §2

SETVI [22] = assay: Pre-emergence action at 320 g/ha against SETVI; format: in vivo, Setaria viridis; settings: visual scoring after about 3 weeks vs untreated controls
Procedure, shortened: as §2

POAAN [23] = assay: Pre-emergence action against POAAN, 1280 g/ha; format: in vivo, Poa annua; settings: visual scoring after about 3 weeks vs untreated controls, 100% = plants have died, 0% = like control plants
Procedure, shortened: as §1

MATIN [24] = assay: Pre-emergence action against MATIN, 1280 g/ha; format: in vivo, Tripleurospermum inodorum (Matricaria inodora); settings: scored visually after about 3 weeks vs untreated controls (100% = plants have died)
Procedure, shortened: as §1

KCHSC [25] = assay: Post-emergence action against KCHSC, 1.28 kg/ha; format: in vivo, Bassia scoparia; settings: dosage 1280 g/ha, visual rating about 3 weeks after treatment vs untreated controls (100% = plants died)
Procedure, shortened: as §3

POAAN [26] = assay: Post-emergence action against POAAN, 1.28 kg/ha; format: in vivo, Poa annua; settings: dosage 1280 g/ha, visual rating about 3 weeks after treatment vs untreated controls
Procedure, shortened: as §3

Question: How did the “Pre-emergence action against STEME” value (STEME) turn out when `O=C(O)CNC(=O)COc1nn(-c2ccccc2F)c(-c2ccc(F)nc2)c1Br` [Example X-021-a] was run?
Answer: 100%

Question: What about the “Pre-emergence action against VERPE in %” value (VERPE [1]) of the same compound?
Answer: 100%

Question: And the “Pre-emergence action against VIOTR in %” value (VIOTR)?
Answer: 100%

Question: What about the “Pre-emergence action against AVEFA in %” value (AVEFA) of the same compound?
Answer: 100%

Question: What about the “Pre-emergence action against KCHSC” value (KCHSC [2]) of the same compound?
Answer: 90%

Question: And the “Pre-emergence action against VERPE” value (VERPE [3])?
Answer: 100%

Question: And the “Post-emergence action against SETVI” value (SETVI [4])?
Answer: 100%

Question: What about the “Post-emergence action against AMARE” value (AMARE [5]) of the same compound?
Answer: 100%

Question: What about the “Pre-emergence action against LOLRI in %” value (LOLRI [6]) of the same compound?
Answer: 100%

Question: What about the “Pre-emergence action against SETVI” value (SETVI [7]) of the same compound?
Answer: 100%

Question: What about the “Pre-emergence action against AMARE” value (AMARE [8]) of the same compound?
Answer: 100%

Question: And the “Pre-emergence action at 320 g/ha against ALOMY in %” value (ALOMY [9])?
Answer: 100%

Question: And the “Post-emergence action against ECHCG” value (ECHCG [10])?
Answer: 100%

Question: And the “Pre-emergence action against MATIN in %” value (MATIN [11])?
Answer: 90%

Question: What about the “Post-emergence action against ALOMY” value (ALOMY [12]) of the same compound?
Answer: 100%

Question: What about the “Post-emergence action against VERPE” value (VERPE [13]) of the same compound?
Answer: 100%

Question: What about the “Post-emergence action against DIGSA” value (DIGSA [14]) of the same compound?
Answer: 100%

Question: What about the “Post-emergence action against MATIN” value (MATIN [15]) of the same compound?
Answer: 90%

Question: And the “Pre-emergence action against DIGSA” value (DIGSA [16])?
Answer: 100%

Question: And the “Pre-emergence action against ALOMY” value (ALOMY [17])?
Answer: 100%

Question: What about the “Pre-emergence action against ECHGC in %” value (ECHGC) of the same compound?
Answer: 100%

Question: And the “Pre-emergence action against ECHCG” value (ECHCG [18])?
Answer: 100%

Question: What about the “Pre-emergence action against LOLRI” value (LOLRI [19]) of the same compound?
Answer: 100%

Question: And the “Post-emergence action against LOLRI” value (LOLRI [20])?
Answer: 100%

Question: What about the “Post-emergence action against ABUTH” value (ABUTH) of the same compound?
Answer: 100%

Question: What about the “Pre-emergence action against POLCO in %” value (POLCO) of the same compound?
Answer: 100%

Question: And the “Pre-emergence action against AMARE in %” value (AMARE [21])?
Answer: 100%

Question: What about the “Pre-emergence action against SETVI in %” value (SETVI [22]) of the same compound?
Answer: 100%

Question: What about the “Pre-emergence action against POAAN” value (POAAN [23]) of the same compound?
Answer: 100%

Question: What about the “Pre-emergence action against MATIN” value (MATIN [24]) of the same compound?
Answer: 100%

Question: What about the “Post-emergence action against KCHSC” value (KCHSC [25]) of the same compound?
Answer: 100%

Question: What about the “Post-emergence action against POAAN” value (POAAN [26]) of the same compound?
Answer: 100%
